What was measured:
Sox9 = test: Real-Time PCR gene expression in human chondrocytes: Sox9; assay type: cell-based; conditions: 1% w/v, ratio to untreated control
Procedure: To evaluate the biological effects of chondroitin on human chondrocyte cultures, the expression of a set of genes considered key to establishing the phenotype, and suitable markers for evaluating the quality of the tissue generated, was determined. The study was conducted on chondrocytes prepared from human cartilage, as reported in Example 2, the cells being grown in the presence of chondroitin or chondroitin sulphate. Using a standard procedure, 5*10^4 cells per well were seeded in a 24-well multiwell plate. The chondrocytes were grown in DMEM containing 1% w/v of chondroitin or chondroitin sulphate (endotoxin content ≤0.1 EU/mg). The cells were stimulated for 4, 7 and 10 days (Ishak et al., International J. of Pediatric Otorhinolaryngology, 2011, 75: 835-840), after which the RNA was extracted with Trizol Reagent, as described in the kit manual (Life Technologies Ltd, Milan, Italy). A qualitative morphological analysis of the cell culture was also conducted at the various times, in parallel with RNA extraction, by observing the corresponding samples at 4, 7 and 10 days under the optical microscope. The cells seeded at the three different times were observed under the microscope, and the images that best represented the cell growth conditions were acquired using a time-lapse videomicroscopy workstation. After RNA extraction, reverse transcription was performed with a total of 1 μg RNA and then with amplification by Real-Time PCR of genes which are specific markers for chondrocytes (Table 3).
Genes connected with matrix production, such as aggrecan, type I collagen, type II collagen and the Sox9 gene, the expression of which is closely correlated with the expression of type II collagen, were analysed as specific markers for differentiation and characterisation of chondrocytes. (Akiyama H., Mod Rheumatol., 2008, 18(3): 213-9; Yang et al., J. of Orthopaedic Res. 2011).
The gene expression of said markers on human chondrocytes cultured in basic medium (control) and with chondroitin treatment (C) or chondroitin sulphate treatment (CS) was analysed on cell cultures in the second and third growth phases.
The results of the gene expression analysis were reported as the average of at least 3 independent experiments for tests conducted in the presence of C or CS, on cells in phases 2 and 3.

mini-pig dorsal wounds = test: Wound repair in the mini-pig, topical treatment; assay type: in vivo; parameters: key to d) Histological evaluation of biopsies after 4 weeks / e) Histological evaluation of biopsies after 6 weeks: collagen organisation 1-3; 3 = best healing, 1 = parallel bundles; conditions: for a) Evaluation of wound quality after 4 weeks: 2.5 mL twice a day, 5 excellent; for a) Evaluation of wound quality after 4 weeks / b) Evaluation of wound quality after 6 weeks: 5-point scale; for d) Histological evaluation of biopsies after 4 weeks / e) Histological evaluation of biopsies after 6 weeks: collagen organisation, 3-point scale; for c) Histopathological evaluation after 6 weeks: scale of 1 to 3, 3 optimum healing
From the text: The mini-pig (an animal weighing 25-28 Kg), a model whose validity for wound-repair studies is widely recognised, was used as experimental model to evaluate the ability of chondroitin to accelerate the repair process of damaged skin tissue. Operating under general anaesthetic from the back of the animals, the hair was shaved and the shaven area was washed thoroughly with a 10% solution of iodine-polyvinylpyrrolidone complex and then with isopropyl alcohol. 12 elliptical wounds, six on each side, 20 mm long and 6 mm wide, were made on the shaven, disinfected backs of the animals. The wounds penetrated as far as the subcutaneous fat, about 4 cm from the median line of the back, with the longer side of the wound parallel to the spinal line. The incisions were then sewn with two stitches to close the dermal plane. The superficial stitches were removed after about 7 days. The wounds were covered with a non-adhesive dressing secured with sticking plaster, and the body of the animals was protected with an elastic bandage. Eight animals were selected and divided into two groups of 4, treated topically with chondroitin (first group) or chondroitin sulphate (second group), as described in the protocol shown in Table 11. Starting from the head of the animal, the first two wounds on both sides were treated with the carrier alone, consisting of 2.5 mL of saline, the second two on both sides were treated with 2.5 mL of a 30 mg/mL solution of chondroitin in saline (first group) or with 2.5 mL of a 30 mg/mL solution of chondroitin sulphate in saline (second group), and the third two on both sides were treated with 2.5 mL of a 60 mg/mL solution of chondroitin in saline (first group) or 2.5 mL of a 60 mg/mL solution of chondroitin sulphate in saline (second group). The treatment was performed by slowly dripping the solution into the wound twice a day and dabbing with a gauze dressing, which was then used to cover the wound so that the active ingredient remained in situ for longer. The study continued for 6 weeks, after which the animals were euthanized. A biopsy of about 4 mm was taken after 4 weeks, while the entire areas of the 12 dorsal wounds were removed from the euthanized animals for histological tests. The following evaluations were performed on the treated animals:
a) an evaluation after 4 and 6 weeks by 4 dermatologists who independently assessed the quality of the wound (colour, texture, edges, distortion) and the appearance of the surrounding tissue on a 5-point scale;
b) a pathological evaluation on a scale of 1 to 3 conducted by two veterinary surgeons on the tissue removed after the animals were euthanized, to evaluate the presence of abnormal histopathological situations (quantity of granulation tissue and inflammatory response, with a score from 3 for optimum healing to 1 for ongoing inflammatory symptoms and abundant granulation tissue);
c) a histological analysis of the 4-week biopsies and the tissue removed after the animals were euthanized, conducted by two histologists operating independently, who evaluated the organisation of the collagen on a 3-point scale. An organisation of the collagen fibres similar to the normal model, but smaller than normal dermis (the best healing), scored 3 points, an intermediate arrangement of the fibre weave scored 2 points, and several fibres arranged in parallel bundles or on a plane scored 1 point.

HT-1376 cells = test: Flow cytometry of apoptotic and necrotic cells (Annexin V-FITC/PI); assay type: cell-based, human; parameters: unit not given here; conditions: 48 h, alone or combined
Procedure: Flow cytometry was used to evaluate the quantity of apoptotic or necrotic cells. Fluorescein isothiocyanate (Annexin V-FITC) combined with propidium iodide (PI) was used as marker; the apoptotic cells were Annexin V-FITC positive and PI negative, and the necrotic cells were Annexin V-FITC positive and PI positive. The cells were labelled by incubating them with Annexin V-FITC (Diagnostics MedSystems) and PI (Sigma) in a binding buffer (10 mM HEPES, pH 7.4, 150 mM NaCl, 5 mM KCl, 1 mM MgCl2, 2.5 mM CaCl2) for 10 min at ambient temperature, and then washing and resuspending the cell material in the same buffer. The apoptotic and necrotic cells were analysed by flow cytometry (FACScan, Becton-Dickinson), acquiring an average of 2×10^4 events per sample, with determinations in triplicate on three separate experiments.

[1] = 0.04 μg/mL of C or CS and 0.15 μg/mL of GEM
[2] = 5.7 μg/mL of C or CS and 1.7 μg/mL of MMC

Substance | Fold Expression, Sox9 (Sox9; phase II, 4 g) | Fold Expression, Sox9 (Sox9; phase II, 7 g) | Fold Expression, Sox9 (Sox9; phase II, 10 g) | Fold Expression, Sox9 (Sox9; phase III, 4 g) | Fold Expression, Sox9 (Sox9; phase III, 7 g) | Fold Expression, Sox9 (Sox9; phase III, 10 g) | a) Evaluation of wound quality after 4 weeks (mini-pig dorsal wounds; 30 mg/mL) | b) Evaluation of wound quality after 6 weeks (mini-pig dorsal wounds; 30 mg/mL) | d) Histological evaluation of biopsies after 4 weeks (mini-pig dorsal wounds; 30 mg/mL) | e) Histological evaluation of biopsies after 6 weeks (mini-pig dorsal wounds; 30 mg/mL) | c) Histopathological evaluation after 6 weeks (mini-pig dorsal wounds; 30 mg/mL) | a) Evaluation of wound quality after 4 weeks (mini-pig dorsal wounds; 60 mg/mL) | b) Evaluation of wound quality after 6 weeks (mini-pig dorsal wounds; 60 mg/mL) | d) Histological evaluation of biopsies after 4 weeks (mini-pig dorsal wounds; 60 mg/mL) | e) Histological evaluation of biopsies after 6 weeks (mini-pig dorsal wounds; 60 mg/mL) | c) Histopathological evaluation after 6 weeks (mini-pig dorsal wounds; 60 mg/mL) | Cell state: apoptotic advanced (HT-1376 cells; [1]) | Cell state: apoptotic early (HT-1376 cells; [1]) | Cell state: necrotic (HT-1376 cells; [1]) | Cell state: viable (HT-1376 cells; [1]) | also measured
chondroitin | 1.87 ± 0.85 | 1.16 ± 0.15 | 1.78 ± 0.75 | 3.68 ± 0.44 | 1.09 ± 0.01 | 0.53 ± 0.02 | 3.8 ± 0.4 | 4.5 ± 0.3 | 2.3 ± 0.2 | 2.7 ± 0.1 | 2.3 ± 0.1 | 4.1 ± 0.3 | 4.9 ± 0.1 | 2.7 ± 0.1 | 3.0 ± 0.2 | 3.0 ± 0.2 | 7 ± 2 | 6 ± 1 | 28 ± 3 | 59 ± 2 | Cell state: apoptotic advanced (HT-1376 cells; [2]): 2 ± 1; Cell state: apoptotic early (HT-1376 cells; [2]): 1 ± 1; Cell state: necrotic (HT-1376 cells; [2]): 41 ± 2; Cell state: viable (HT-1376 cells; [2]): 56 ± 3
chondroitin sulphate [CS, reference compound] | 2.2 ± 1.20 | 0.86 ± 0.31 | 0.53 ± 0.02 | 2.6 ± 1.21 | 1.41 ± 0.04 | 0.81 ± 0.05 | 2.6 ± 0.2 | 3.4 ± 0.3 | 1.3 ± 0.1 | 1.7 ± 0.2 | 1.7 ± 0.2 | 2.9 ± 0.2 | 3.7 ± 0.3 | 1.3 ± 0.1 | 1.7 ± 0.1 | 2.3 ± 0.2 | 5 ± 1 | 4 ± 1 | 23 ± 2 | 68 ± 4 | Cell state: apoptotic advanced (HT-1376 cells; [2]): 1 ± 1; Cell state: apoptotic early (HT-1376 cells; [2]): 1 ± 1; Cell state: necrotic (HT-1376 cells; [2]): 36 ± 2; Cell state: viable (HT-1376 cells; [2]): 62 ± 4

Reference: patent US10206944B2, “Chondroitin for use in medicine” (ALTERGON S.A., priority 2012, dated 2019)
